# Where a SMILES comes first, the peptide text is derived from it. The star is where a group is joined. Cbz = O=C(OCc1ccccc1)*
# How the values were obtained:
# [1] = system: MB468; assay: Cancer cell growth inhibition, MB468 (MDA-MB-468); format: cell-based; conditions: Homo sapiens, Table 1, MB468, read-out: MB468 IC50
# [2] = system: HeLa; assay: Cancer cell growth inhibition, HeLa; format: cell-based; conditions: Homo sapiens; Table 1, HeLa; read-out: HeLa IC50
# Description: Cell lines and establishment of stable cell lines. Human breast cancer cell lines MDA-MB-231 and MDA-MB-468, osteosarcoma line U20S, cervical adenocarcinoma line HeLa, and normal skin fibroblast Hs27 were maintained in DMEM medium (Invitrogen, Grand Island, N.Y.) supplemented 10% fetal bovine serum (FBS) and 1% penicillin-streptomycin. The leukemia cell line K562 and glioblastoma cell line T98G were grown in RPMI 1640 supplemented 10% FBS and 1% penicillin-streptomycin. Normal mammary gland epithelial cell line MCF10A was cultured in DMEM/F12 (50:50) plus 5% horse serum, 0.1 μg/mL cholera toxin, 10 μg/mL insulin, 0.5 μg/mL hydrocortisone, and 20 ng/mL epidermal growth factor. To establish MDA-MB-468 cells that stably expressed each individual GFP-Hec1 deletion construct described above, cells were infected with retrovirus expressing GFP-Hec1 WT, GFP-Hec1 W395A and GFP-Hec1 WLK/AAA, and were selected with 2 μg/ml puromycin.
# [3] = system: cancer cell lines; assay: Cancer cell growth inhibition; format: cell-based
# [4] = system: Nek2; assay: Nek2 protein level in treated HeLa cells, western blot; format: cell-based; conditions: co-treatment with INH41 or INH154
# Description: INH-induced Nek2 degradation; INH-inhibition of Hec1 phosphorylation by Nek2. […] To evaluate whether INH treatment affected cell cycle profile or Nek2 mRNA level, we performed FACS and real-time PCR analysis.
# Protein extraction and western blot analysis. The protein extractions and western blot analyses of Examples 4-6 were conducted as follows. Cell extracts were prepared and equal amounts of protein were separated by SDS-PAGE (10% w/v gel) followed by electrophoretic transfer to PVDF membranes (Millipore, Billerica, Mass.). After blocking with 5% w/v powdered non-fat milk, the membrane was incubated with different antibodies for overnight at 4° C. and treated for 1 hr with horseradish peroxidase-conjugated goat anti-mouse IgG and goat anti-rabbit IgG antibodies (GeneTex, Irvine, Calif.). ECL detection of the horseradish peroxidase reaction was performed according to the manufacturer's instructions (Millipore, Billerica, Mass.). Protein signal was measured on a LAS 4000 mini Imaging System (Fujifilm, Valhalla, N.Y.).
# [5] = system: Hec1; assay: Biotin-conjugated INH pull-down of Hec1 and Hec1 mutants; format: binding
SMILES,IC50 [1],IC50 [2],"inhibition of cancer cell growth, IC50 (in words) [3]",effect on INH-induced degradation of Nek2 [4],binding of Hec1 W395A and W395A/L399A/K400A mutants [5]
COc1cc(C)cc(C)c1-c1csc(NC(=O)c2ccncc2)n1 [INH56],4500 nM,1800 nM,,,
"Cc1cc([N+](=O)[O-])cc(C)c1-c1csc(NC(=O)c2ccncc2)n1 [INH78, N-(4-(2,6-Dimethyl-4-nitrophenyl)thiazol-2-yl)isonicotinamide]",1400 nM,630 nM,sub-micromolar IC50,,
"Cc1cc(N)cc(C)c1-c1csc(NC(=O)c2ccncc2)n1 [INH79, N-(4-(4-amino-2,6-dimethylphenyl)thiazol-2-yl)isonicotinamide]",3200 nM,2300 nM,,,
"Cc1cc(F)cc(C)c1-c1csc(NC(=O)c2ccncc2)n1 [INH80, N-(4-(4-fluoro-2,6-dimethylphenyl)thiazol-2-yl)isonicotinamide]",4400 nM,2000 nM,,,
"COc1cncc(Oc2cc(C)c(-c3csc(NC(=O)c4ccncc4)n3)c(C)c2)n1 [INH81, N-(4-(4-((6-methoxypyrazin-2-yl)oxy)-2,6-dimethylphenyl)thiazol-2-yl)isonicotinamide]",400 nM,1400 nM,sub-micromolar IC50,,
"Cc1cc(NC(=O)C2CC2)cc(C)c1-c1csc(NC(=O)c2ccncc2)n1 [INH136, N-(4-(4-((cyclopropylcarbonyl)amino)-2,6-dimethylphenyl)thiazol-2-yl)isonicotinamide]",3400 nM,1500 nM,,,
"Cc1cc(NC(=O)CCC(=O)O)cc(C)c1-c1csc(NC(=O)c2ccncc2)n1 [INH146, 4-(4-(2-(isonicotinamido)thiazol-4-yl)-3,5-dimethylphenylamino)-4-oxobutanoic acid]",> 10000 nM,> 5000 nM,,,
"Cc1cc(NCC(=O)O)cc(C)c1-c1csc(NC(=O)c2ccncc2)n1 [INH156, N-(4-(2-(Isonicotinamido)thiazol-4-yl)-3,5-dimethylphenyl)-glycine]",9400 nM,2400 nM,,,
"Cc1cc(N2C(=O)CCC2=O)cc(C)c1-c1csc(NC(=O)c2ccncc2)n1 [INH160, N-(4-(4-(2,5-dioxopyrrolidin-1-yl)-2,6-dimethylphenyl)thiazol-2-yl)isonicotinamide]",3300 nM,5000 nM,,,
Cc1cc(N2CCOCC2)cc(C)c1-c1csc(NC(=O)c2ccncc2)n1 [INH168],120 nM,200 nM,sub-micromolar IC50,,
"Cc1cc(C#N)cc(C)c1-c1csc(NC(=O)c2ccncc2)n1 [INH174, N-(4-(4-Cyano-2,6-dimethylphenyl)thiazol-2-yl)isonicotinamide]",500 nM,600 nM,sub-micromolar IC50,,
"Cc1cc(O)cc(C)c1-c1csc(NC(=O)c2ccncc2)n1 [INH182, N-(4-(4-hydroxy-2,6-dimethylphenyl)thiazol-2-yl)isonicotinamide]",2000 nM,3500 nM,,,
"Cc1cc(N2CCN(C)CC2)cc(C)c1-c1csc(NC(=O)c2ccncc2)n1 [INH212, N-(4-(2,6-dimethyl-4-(4-methylpiperazin-1-yl)phenyl)thiazol-2-yl)isonicotinamide]",2400 nM,2500 nM,,,
"CC(C)C[C@@H](C=O)NC(=O)[C@H](CC(C)C)NC(=O)[C@H](CC(C)C)NC(=O)OCc1ccccc1 [MG132, reference compound] (Cbz-Leu-Leu-Leu-aldehyde)",,,,prevented INH-induced degradation of Nek2,
"Cc1cc(N2CCC(OCCOCCOCCOCCNC(=O)CCCC[C@@H]3SC[C@@H]4NC(=O)N[C@@H]43)CC2)cc(C)c1-c1csc(NC(=O)c2ccncc2)n1 [biotin-INH154, N-(4-(2,6-dimethyl-4-(4-((13-oxo-17-((3aS,4S,6aR)-2-oxohexahydro-1H-thieno [3,4-d]imidazol-4-yl)-3,6,9-trioxa-12-azaheptadecyl)oxy)piperidin-1-yl)phenyl)thiazol-2-yl)isonicotinamide]",,,,,neither mutant was able to bind

# — patent publication US9670197B2, “Small molecule modifiers of the Hec1-Nek2 interaction in G2/M” (The Regents of the University of California, priority 2013, dated 2017)
